{
  "source": "paper PMC5218480",
  "about": "(PLoS ONE, 2017)",
  "tested_on": "MV-4-11 cells",
  "assay": "Gene expression microarray analysis (Affymetrix PrimeView) and GSEA",
  "type": "cell-based, human",
  "design": "RFU PODN (11730768_x_at) / Fold change /veh PODN (11730768_x_at) / RFU LINC00158 (11744669_a_at) / Fold change /veh LINC00158 (11744669_a_at) / RFU DUSP10 (11751237_a_at) / Fold change /veh DUSP10 (11751237_a_at) / RFU ID3 (11757404_x_at) / Fold change /veh ID3 (11757404_x_at) / RFU PLEKHG5 (11737974_s_at) / Fold change /veh PLEKHG5 (11737974_s_at) / RFU LRRC4B (11730491_at) / Fold change /veh LRRC4B (11730491_at) / RFU GIMAP4 (11747438_a_at) / Fold change /veh GIMAP4 (11747438_a_at) / RFU KRT8 (11758183_x_at) / Fold change /veh KRT8 (11758183_x_at) / RFU CNN1 (11734310_a_at) / Fold change /veh CNN1 (11734310_a_at) / RFU VPS37D (11726825_at) / Fold change /veh VPS37D (11726825_at) / RFU C10orf10 (11716522_x_at) / Fold change /veh C10orf10 (11716522_x_at) / RFU KIR2DL2 /// KIR2DL4 /// KIR2DL5A /// KIR2DL5B /// KIR2DS1 /// KIR2DS2 /// KIR2DS3 /// KIR2DS4 /// KIR3DL3 /// KIR3DL3 /// KIR3DS1 (11738374_at) / Fold change /veh KIR2DL2 /// KIR2DL4 /// KIR2DL5A /// KIR2DL5B /// KIR2DS1 /// KIR2DS2 /// KIR2DS3 /// KIR2DS4 /// KIR3DL3 /// KIR3DL3 /// KIR3DS1 (11738374_at) / RFU C1QL1 (11718748_at) / Fold change /veh C1QL1 (11718748_at) / RFU TMPRSS4 (11747572_a_at) / Fold change /veh TMPRSS4 (11747572_a_at) / RFU HAMP (11756126_x_at) / Fold change /veh HAMP (11756126_x_at) / RFU RNFT2 (11725882_a_at) / Fold change /veh RNFT2 (11725882_a_at) / RFU NR4A2 (11747474_a_at) / Fold change /veh NR4A2 (11747474_a_at) / RFU ABCC12 (11746883_a_at) / Fold change /veh ABCC12 (11746883_a_at) / RFU TMEM136 (11760407_x_at) / Fold change /veh TMEM136 (11760407_x_at) / RFU CLDN22 /// WWC2 (11732394_at) / Fold change /veh CLDN22 /// WWC2 (11732394_at) / RFU HLA-DPB1 (11760878_x_at) / Fold change /veh HLA-DPB1 (11760878_x_at) / RFU SPINT1 (11716480_a_at) / Fold change /veh SPINT1 (11716480_a_at) / RFU GAP43 (11754022_s_at) / Fold change /veh GAP43 (11754022_s_at) / RFU A4GNT (11735810_at) / Fold change /veh A4GNT (11735810_at) / RFU PRB3 (11715151_x_at) / Fold change /veh PRB3 (11715151_x_at) / RFU TUBB4B (11761932_at) / Fold change /veh TUBB4B (11761932_at) / RFU CAPN14 (11732068_a_at) / Fold change /veh CAPN14 (11732068_a_at) / RFU TMCC2 (11721928_a_at) / Fold change /veh TMCC2 (11721928_a_at) / RFU IRGQ (11745062_a_at) / Fold change /veh IRGQ (11745062_a_at) / RFU FAM174B (11720279_a_at) / Fold change /veh FAM174B (11720279_a_at) / RFU TMPRSS4 (11748680_a_at) / Fold change /veh TMPRSS4 (11748680_a_at) / RFU FAM212B (11763350_a_at) / Fold change /veh FAM212B (11763350_a_at) / RFU PLEKHG5 (11743358_a_at) / Fold change /veh PLEKHG5 (11743358_a_at) / RFU ZSCAN30 (11745921_a_at) / Fold change /veh ZSCAN30 (11745921_a_at) / RFU CMKLR1 (11741424_a_at) / Fold change /veh CMKLR1 (11741424_a_at) / RFU LOC101060620 /// MAPK8IP1 (11723275_at) / Fold change /veh LOC101060620 /// MAPK8IP1 (11723275_at) / RFU SPTSSB (11747773_x_at) / Fold change /veh SPTSSB (11747773_x_at) / RFU PRSS12 (11739890_at) / Fold change /veh PRSS12 (11739890_at) / RFU BIN1 (11741810_x_at) / Fold change /veh BIN1 (11741810_x_at) / RFU WNT11 (11732464_a_at) / Fold change /veh WNT11 (11732464_a_at) / RFU C10orf10 (11716521_a_at) / Fold change /veh C10orf10 (11716521_a_at) / RFU C5orf56 (11738089_at) / Fold change /veh C5orf56 (11738089_at) / RFU CYB561 (11721691_x_at) / Fold change /veh CYB561 (11721691_x_at) / RFU ANKRD19P (11752326_a_at) / Fold change /veh ANKRD19P (11752326_a_at) / RFU OR2T12 /// OR2T33 /// OR2T8 (11738714_s_at) / Fold change /veh OR2T12 /// OR2T33 /// OR2T8 (11738714_s_at) / RFU VCAN (11748164_a_at) / Fold change /veh VCAN (11748164_a_at) / RFU JSRP1 (11732532_at) / Fold change /veh JSRP1 (11732532_at) / RFU KRTAP10-11 (11738290_x_at) / Fold change /veh KRTAP10-11 (11738290_x_at) / RFU MYO3A (11730013_a_at) / Fold change /veh MYO3A (11730013_a_at) / RFU EBF3 (11725865_a_at) / Fold change /veh EBF3 (11725865_a_at) / RFU CAMK2N1 (11719241_x_at) / Fold change /veh CAMK2N1 (11719241_x_at) / RFU C5orf56 (11738088_a_at) / Fold change /veh C5orf56 (11738088_a_at) / RFU OLFML3 (11715873_a_at) / Fold change /veh OLFML3 (11715873_a_at) / RFU LOC100653217 /// NTM (11731650_a_at) / Fold change /veh LOC100653217 /// NTM (11731650_a_at) / RFU MAPK11 (11762145_a_at) / Fold change /veh MAPK11 (11762145_a_at) / RFU FIZ1 (11724087_x_at) / Fold change /veh FIZ1 (11724087_x_at) / RFU OASL (11726364_x_at) / Fold change /veh OASL (11726364_x_at) / RFU SOX15 (11748057_x_at) / Fold change /veh SOX15 (11748057_x_at) / RFU CD79A (11719716_a_at) / Fold change /veh CD79A (11719716_a_at) / RFU HIST1H1D (11736915_at) / Fold change /veh HIST1H1D (11736915_at) / RFU CASKIN2 (11723855_a_at) / Fold change /veh CASKIN2 (11723855_a_at) / RFU LOC730098 (11760151_x_at) / Fold change /veh LOC730098 (11760151_x_at) / RFU OR4N2 (11742367_at) / Fold change /veh OR4N2 (11742367_at) / RFU PRRT2 (11749266_a_at) / Fold change /veh PRRT2 (11749266_a_at) / RFU SNX32 (11753110_a_at) / Fold change /veh SNX32 (11753110_a_at) / RFU CDHR5 (11726645_a_at) / Fold change /veh CDHR5 (11726645_a_at) / RFU RCAN1 (11760418_a_at) / Fold change /veh RCAN1 (11760418_a_at) / RFU FAM167A (11723789_a_at) / Fold change /veh FAM167A (11723789_a_at) / RFU FAM26E (11764081_at) / Fold change /veh FAM26E (11764081_at) / RFU ISYNA1 (11749810_s_at) / Fold change /veh ISYNA1 (11749810_s_at) / RFU ACY1 (11761880_at) / Fold change /veh ACY1 (11761880_at) / RFU 11764098_at / Fold change /veh 11764098_at / RFU SAMD14 (11745864_x_at) / Fold change /veh SAMD14 (11745864_x_at) / RFU NPB (11741838_a_at) / Fold change /veh NPB (11741838_a_at) / RFU TMPRSS6 (11731388_a_at) / Fold change /veh TMPRSS6 (11731388_a_at) / RFU KRTAP10-2 (11738614_at) / Fold change /veh KRTAP10-2 (11738614_at) / RFU ARHGAP8 /// PRR5-ARHGAP8 (11727945_x_at) / Fold change /veh ARHGAP8 /// PRR5-ARHGAP8 (11727945_x_at) / RFU KRTAP5-7 /// NADSYN1 (11734609_at) / Fold change /veh KRTAP5-7 /// NADSYN1 (11734609_at) / RFU RASL12 (11751679_a_at) / Fold change /veh RASL12 (11751679_a_at) / RFU CDKN2B (11736163_a_at) / Fold change /veh CDKN2B (11736163_a_at) / RFU PRF1 (11729649_at) / Fold change /veh PRF1 (11729649_at) / RFU, ZNF638 /// ZNF638-IT1 / Fold change vs veh, ZNF638 /// ZNF638-IT1 / RFU, PANK3 / Fold change vs veh, PANK3 / RFU, SH3YL1 / Fold change vs veh, SH3YL1 / RFU, ZEB2 / Fold change vs veh, ZEB2 / RFU, NRIP1 / Fold change vs veh, NRIP1 / RFU, PTTG1IP / Fold change vs veh, PTTG1IP / RFU, CAPN2 / Fold change vs veh, CAPN2 / RFU, MED14 / Fold change vs veh, MED14 / RFU, SNORA58 / Fold change vs veh, SNORA58 / RFU, C1orf63 / Fold change vs veh, C1orf63 / RFU, LRRFIP1 / Fold change vs veh, LRRFIP1 / RFU, NDUFAF7 / Fold change vs veh, NDUFAF7 / RFU, SLC12A2 / Fold change vs veh, SLC12A2 / RFU, IBTK / Fold change vs veh, IBTK / RFU, ESF1 / Fold change vs veh, ESF1 / Fold change vs veh, TMEM50B / RFU, TAOK1 / Fold change vs veh, TAOK1 / RFU, ACBD3 / Fold change vs veh, ACBD3 / RFU, TMA16 / Fold change vs veh, TMA16 / RFU, RWDD3 / Fold change vs veh, RWDD3 / RFU, BCAT1 / Fold change vs veh, BCAT1 / RFU, EDEM3 / Fold change vs veh, EDEM3 / RFU, TMEM33 / Fold change vs veh, TMEM33 / RFU, WDR75 / Fold change vs veh, WDR75 / RFU, AHCTF1 / Fold change vs veh, AHCTF1 / RFU, TFRC / Fold change vs veh, TFRC / RFU, ZDHHC17 / Fold change vs veh, ZDHHC17 / RFU, NOM1 / Fold change vs veh, NOM1 / RFU, ARL8B / Fold change vs veh, ARL8B / RFU, ZBTB11 / Fold change vs veh, ZBTB11 / RFU, TAMM41 / Fold change vs veh, TAMM41 / RFU, KIAA1704 /// LOC100996395 / Fold change vs veh, KIAA1704 /// LOC100996395 / RFU, ING1 / Fold change vs veh, ING1 / RFU, TRMT61B / Fold change vs veh, TRMT61B / RFU, FUBP3 / Fold change vs veh, FUBP3 / RFU, TP53 / Fold change vs veh, TP53 / RFU, TNKS2 / Fold change vs veh, TNKS2 / RFU, ZFP14 / Fold change vs veh, ZFP14 / RFU, ACTR2 / Fold change vs veh, ACTR2 / RFU, PPP3R1 / Fold change vs veh, PPP3R1 / RFU, PIK3R1 / Fold change vs veh, PIK3R1 / RFU, HNRNPA1 / Fold change vs veh, HNRNPA1 / RFU, RNF170 / Fold change vs veh, RNF170 / RFU, ZNF28 / Fold change vs veh, ZNF28 / RFU, RNGTT / Fold change vs veh, RNGTT / RFU, OGT / Fold change vs veh, OGT / RFU, BRD1 / Fold change vs veh, BRD1 / RFU, MARS / Fold change vs veh, MARS / RFU, ZNF655 / Fold change vs veh, ZNF655 / RFU, FAHD1 / Fold change vs veh, FAHD1 / RFU, BDP1 / Fold change vs veh, BDP1 / RFU, LRRCC1 / Fold change vs veh, LRRCC1 / RFU, ARID1A / Fold change vs veh, ARID1A / RFU, ZNF146 / Fold change vs veh, ZNF146 / RFU, ZNF330 / Fold change vs veh, ZNF330 / RFU, GPN3 / Fold change vs veh, GPN3 / RFU, C9orf123 / Fold change vs veh, C9orf123 / RFU, N4BP2L2 / Fold change vs veh, N4BP2L2 / RFU, ARFIP1 / Fold change vs veh, ARFIP1 / RFU, FAM179B / Fold change vs veh, FAM179B / RFU, BCL10 / Fold change vs veh, BCL10 / RFU, UHRF1BP1L / Fold change vs veh, UHRF1BP1L / RFU, BET1 / Fold change vs veh, BET1 / RFU, CNOT2 / Fold change vs veh, CNOT2 / RFU, ZNF268 / Fold change vs veh, ZNF268 / Fold change vs veh, ZNF507 / RFU, DGCR2 / Fold change vs veh, DGCR2 / RFU, WDSUB1 / Fold change vs veh, WDSUB1 / Fold change vs veh, HSP90B1 /// MIR3652 / RFU, ADSS / Fold change vs veh, ADSS / RFU, GK / Fold change vs veh, GK / RFU, ZNF148 / Fold change vs veh, ZNF148 / RFU, TAF9 / Fold change vs veh, TAF9 / RFU, SLC1A5 / Fold change vs veh, SLC1A5 / RFU, SLMO2 / Fold change vs veh, SLMO2 / RFU, ABCC4 / Fold change vs veh, ABCC4 / RFU, LOC101060439 /// RAP1B / Fold change vs veh, LOC101060439 /// RAP1B / RFU, RFX7 / Fold change vs veh, RFX7 / RFU, GTPBP10 / Fold change vs veh, GTPBP10 / RFU, CNEP1R1 / Fold change vs veh, CNEP1R1 / RFU, BIVM-ERCC5 /// ERCC5 / Fold change vs veh, BIVM-ERCC5 /// ERCC5 / RFU, ILF3 / Fold change vs veh, ILF3 / RFU 11762660_at / Fold change /veh 11762660_at / RFU VCAN (11757783_s_at) / Fold change /veh VCAN (11757783_s_at) / RFU DDX43 (11728927_at) / Fold change /veh DDX43 (11728927_at) / RFU KRT8 (11758188_x_at) / Fold change /veh KRT8 (11758188_x_at) / RFU NKD1 (11759106_at) / Fold change /veh NKD1 (11759106_at) / RFU SRD5A1 (11742802_a_at) / Fold change /veh SRD5A1 (11742802_a_at) / RFU TPSAB1 /// TPSB2 (11721975_s_at) / Fold change /veh TPSAB1 /// TPSB2 (11721975_s_at) / RFU GSTM3 (11746129_a_at) / Fold change /veh GSTM3 (11746129_a_at) / RFU IL23R (11737362_x_at) / Fold change /veh IL23R (11737362_x_at) / RFU TMEM51 (11727254_a_at) / Fold change /veh TMEM51 (11727254_a_at) / RFU PIWIL2 (11732686_x_at) / Fold change /veh PIWIL2 (11732686_x_at) / RFU ORM1 (11744905_x_at) / Fold change /veh ORM1 (11744905_x_at) / RFU CCDC152 (11743942_at) / Fold change /veh CCDC152 (11743942_at) / RFU ECM1 (11717891_a_at) / Fold change /veh ECM1 (11717891_a_at) / RFU IL23R (11748794_a_at) / Fold change /veh IL23R (11748794_a_at) / RFU TNFAIP8L3 (11732012_x_at) / Fold change /veh TNFAIP8L3 (11732012_x_at) / RFU MBOAT4 (11741988_at) / Fold change /veh MBOAT4 (11741988_at) / RFU 11764193_at / Fold change /veh 11764193_at / RFU TMEM53 (11763286_at) / Fold change /veh TMEM53 (11763286_at) / RFU MAGEB2 (11727129_at) / Fold change /veh MAGEB2 (11727129_at) / RFU TMEM200A (11744735_a_at) / Fold change /veh TMEM200A (11744735_a_at) / RFU CCDC152 (11751479_a_at) / Fold change /veh CCDC152 (11751479_a_at) / RFU FAM211A (11726209_a_at) / Fold change /veh FAM211A (11726209_a_at) / RFU RGS16 (11746705_a_at) / Fold change /veh RGS16 (11746705_a_at) / RFU VCAN (11755009_s_at) / Fold change /veh VCAN (11755009_s_at) / RFU RHOB (11743442_s_at) / Fold change /veh RHOB (11743442_s_at) / RFU RGS16 (11720943_a_at) / Fold change /veh RGS16 (11720943_a_at) / RFU RGS16 (11720944_at) / Fold change /veh RGS16 (11720944_at) / RFU, VPS4B / Fold change vs veh, VPS4B / RFU, CREB1 / Fold change vs veh, CREB1 / RFU, DNAJC13 / Fold change vs veh, DNAJC13 / RFU, GNAQ / Fold change vs veh, GNAQ / RFU, CDK5R1 / Fold change vs veh, CDK5R1 / RFU, ZRANB3 / Fold change vs veh, ZRANB3 / RFU, CUL4A / Fold change vs veh, CUL4A / RFU, CCNY / Fold change vs veh, CCNY / RFU, UFL1 / Fold change vs veh, UFL1 / RFU, COG3 / Fold change vs veh, COG3 / RFU, DIAPH2 / Fold change vs veh, DIAPH2 / RFU, SKA2 / Fold change vs veh, SKA2 / RFU, AFF3 / Fold change vs veh, AFF3 / RFU, LMF1 / Fold change vs veh, LMF1 / RFU, IPO11 / Fold change vs veh, IPO11 / RFU, DFFB / Fold change vs veh, DFFB / RFU, FOXP1 / Fold change vs veh, FOXP1 / RFU, CARD8 / Fold change vs veh, CARD8 / RFU, STRN3 / Fold change vs veh, STRN3 / RFU, ADK / Fold change vs veh, ADK / RFU, RASSF2 / Fold change vs veh, RASSF2 / RFU, WIPF1 / Fold change vs veh, WIPF1 / RFU, LARP1B / Fold change vs veh, LARP1B / RFU, RASA1 / Fold change vs veh, RASA1 / RFU, RB1 / Fold change vs veh, RB1 / RFU, PPFIA1 / Fold change vs veh, PPFIA1 / RFU, MAT2A / Fold change vs veh, MAT2A / RFU, CCT5 / Fold change vs veh, CCT5 / RFU, WDR92 / Fold change vs veh, WDR92 / RFU, CUX1 / Fold change vs veh, CUX1 / RFU, TTC7A / Fold change vs veh, TTC7A / RFU, TMEM135 / Fold change vs veh, TMEM135 / RFU, DEPTOR / Fold change vs veh, DEPTOR / RFU, CPM / Fold change vs veh, CPM / RFU, DNAJB6 / Fold change vs veh, DNAJB6 / RFU, CACNA2D3 / Fold change vs veh, CACNA2D3 / RFU, DTX4 / Fold change vs veh, DTX4 / RFU, TFCP2 / Fold change vs veh, TFCP2 / RFU, GMCL1 /// GMCL1P1 / Fold change vs veh, GMCL1 /// GMCL1P1 / RFU, AEBP2 / Fold change vs veh, AEBP2 / RFU, SNHG1 /// SNORD22 /// SNORD25 /// SNORD26 /// SNORD27 /// SNORD28 /// SNORD29 /// SNORD31 / Fold change vs veh, SNHG1 /// SNORD22 /// SNORD25 /// SNORD26 /// SNORD27 /// SNORD28 /// SNORD29 /// SNORD31 / Fold change (Aza/veh), C12orf56 (ProbeSet 11735607_a_at) / Fold change (ACY-1035/veh), C12orf56 (ProbeSet 11735607_a_at) / Fold change (Aza/veh), FGFR1OP (ProbeSet 11751329_s_at) / Fold change (ACY-1035/veh), FGFR1OP (ProbeSet 11751329_s_at) / Fold change (Aza/veh), VPS36 (ProbeSet 11739960_a_at) / Fold change (ACY-1035/veh), VPS36 (ProbeSet 11739960_a_at) / RFU SYPL1 (11715823_x_at) / Fold change /veh SYPL1 (11715823_x_at) / RFU IGFBP7 (11715501_s_at) / Fold change /veh IGFBP7 (11715501_s_at) / RFU REEP3 (11722064_at) / Fold change /veh REEP3 (11722064_at) / RFU IGLL1 (11728026_x_at) / Fold change /veh IGLL1 (11728026_x_at): dose or concentration left out as unconfirmed",
  "conditions": "ProbeSet 11725141_a_at; LIST B",
  "data": [
    {"smiles": "Nc1ncn([C@@H]2O[C@H](CO)[C@@H](O)[C@H]2O)c(=O)n1", "note": "[azacitidine]", "values": [
      {"measurement": "Fold change vs veh, FUBP3", "result": 0.84}
    ]}
  ]
}
